This is an account of results in PubChem BioAssay (NCI).

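Exposure lasted 48 hours, with cells grown in 96-well plates and compounds tested at five concentrations. GI50: concentration for 50% inhibition of growth. The concentration for full growth arrest is given as TGI.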

Holding throughout (experiment): inhibition of tumour cell growth, NCI panel, 48 h
Assay [1] relates to HCT-15 colon.
Assay [2] relates to IGROV1 ovarian.
Assay [3] deals with MALME-3M melanoma.
Assay [4] relates to MDA-MB-231 breast.
For assay [5], the system named is OVCAR-8 ovarian.
In assay [6] the test system is SF-268 CNS.
Assay [7] concerns SF-295 CNS.
In assay [8] the test system is SK-MEL-28 melanoma.
Assay [9] has as its system SK-OV-3 ovarian.
The subject of assay [10] is SR leukemia.

Consider `CC(=O)/C(=N\N=C(N)N)c1ccccc1`, for which the TGI in [1], in [2], in [3], in [4], in [5] and in assay [6] was more than 100 µM in each case. The TGI in assay [7], in assay [8], in assay [9] and in assay [10] was more than 100 µM each time.
On to `COc1ccc(C(=O)Cn2c(C(=O)c3ccc(Cl)cc3)nc(-c3ccccc3)c2-c2ccccc2)cc1`, for which the GI50 in assay [1] was more than 100 µM; in [2] it was 67.1 µM; in [3], more than 100 µM; in [4], 44 µM; in [5], more than 100 µM; in assay [6], more than 100 µM. In addition, the GI50 in [7] is 91 µM; in [8] it was more than 100 µM; in assay [9], 60.1 µM; in assay [10] it was more than 100 µM. The TGI in assay [1], in [2], in assay [3], in assay [4], in assay [5] and in assay [6] was more than 100 µM throughout. Also, the TGI in assay [7], in [8], in assay [9] and in [10] was more than 100 µM in each case.
In the case of `C[C@]12CCC3c4ccc(O)cc4CCC3C1CC[C@@H]2NC(=O)/C=C/c1ccc(O)c(O)c1` (stereo not given in full), the GI50 in [1] was 4.89 µM; in assay [2] it was 12.1 µM; in [3], 25.1 µM; in assay [4], 14.5 µM; in [5], 10.4 µM; in assay [6], 11.2 µM. Further, the GI50 is 18.5 µM in [7], 9.59 µM in assay [8], 14.8 µM in assay [9] and 7.26 µM in assay [10]. The TGI in assay [1] came out at 19 µM; in [2], 32.2 µM; in assay [3], 70.9 µM; in assay [4], 33.6 µM; in [5], 29.1 µM; in assay [6], 45.3 µM. For the same molecule, the TGI was found to be 44.8 µM in [7], 24.5 µM in assay [8], 31.6 µM in assay [9] and 42 µM in assay [10].
For `COc1ccc(CN2c3ccccc3Sc3ccccc32)cc1O`, the GI50 in assay [1] was 0.369 µM; in [2], 1.93 µM; in [3] it was 12.1 µM; in assay [4], 0.668 µM; in [5], 0.508 µM; in [6] it was 0.966 µM. Besides, the GI50 is 0.225 µM in assay [7], 14.4 µM in [8], 0.521 µM in assay [9] and 0.407 µM in assay [10]. Further, the TGI came out at 11.8 µM in [1]; 21.3 µM in [2]; 28.1 µM in assay [3]; 18.1 µM in assay [4]; 20.3 µM in [5]; 20.5 µM in [6]. Further, the TGI in [7] is 0.646 µM; in assay [8] it was 32.2 µM; in assay [9], 16.4 µM; in [10], 30.7 µM.
With `OC[C@H]1N[C@H](CO)[C@@H](O)[C@H]1O`, the TGI in [1], in assay [2], in assay [3], in assay [4], in assay [5] and in assay [6] was more than 100 µM throughout. Also, the TGI in assay [7], in assay [8], in [9] and in assay [10] was more than 100 µM throughout.
Take `CC(C)(O)c1cc(Nc2cc(Oc3cn(C4CC4)nc3C3CCOCC3)ccn2)ccn1`: the GI50 is more than 100 µM in assay [1]; 62.4 µM in [2]; more than 100 µM in assay [3]; 65 µM in [4]; more than 100 µM in assay [5]; more than 100 µM in assay [6]. In addition, the GI50 in [7] was 64.3 µM; in assay [8], more than 100 µM; in [9] it was more than 100 µM; in [10], more than 100 µM. For the same molecule, the TGI in assay [1], in assay [2], in assay [3], in assay [4], in [5] and in [6] was more than 100 µM throughout. Moreover, the TGI in [7], in [8], in assay [9] and in assay [10] was more than 100 µM in each case.
As to `O=C1C=C(NCCc2ccccc2)c2ccccc2C1=O`, the TGI is 3.6 µM in assay [1]; 21.3 µM in [2]; 2.47 µM in assay [3]; 42.8 µM in [4]; 19.7 µM in [5]; 23.1 µM in [6]. Also, the TGI was 4.76 µM in [7], 3.96 µM in assay [8], 27 µM in assay [9] and 43.3 µM in [10].
On to `O=C(O)CCN1C(=S)CSC1=S`, for which the TGI in assay [1], in assay [2], in [3], in assay [4], in [5] and in [6] was more than 100 µM in each case. Also, the TGI in assay [7], in [8], in [9] and in assay [10] was more than 100 µM throughout.
